Measurements published in patent publication US7816371B2, “Bicycloheteroaryl compounds as P2X7 modulators and uses thereof” (Renovis, Inc., priority 2006, dated 2010).

biological target: T1, P2X7 receptor (Homo sapiens, UniProt Q99572); assay: IL-1β release assay in differentiated THP-1 cells stimulated with BzATP (Example 9); % inhibition and IC50; type: cell-based; conditions: THP-1 cells differentiated with LPS and IFN-γ, 30 min pretreatment, BzATP 250 uM, IL-1β by ELISA
T1 construct: host or cells: THP-1 cells differentiated with LPS and IFN-γ
T1 sequence (Q99572 1-595): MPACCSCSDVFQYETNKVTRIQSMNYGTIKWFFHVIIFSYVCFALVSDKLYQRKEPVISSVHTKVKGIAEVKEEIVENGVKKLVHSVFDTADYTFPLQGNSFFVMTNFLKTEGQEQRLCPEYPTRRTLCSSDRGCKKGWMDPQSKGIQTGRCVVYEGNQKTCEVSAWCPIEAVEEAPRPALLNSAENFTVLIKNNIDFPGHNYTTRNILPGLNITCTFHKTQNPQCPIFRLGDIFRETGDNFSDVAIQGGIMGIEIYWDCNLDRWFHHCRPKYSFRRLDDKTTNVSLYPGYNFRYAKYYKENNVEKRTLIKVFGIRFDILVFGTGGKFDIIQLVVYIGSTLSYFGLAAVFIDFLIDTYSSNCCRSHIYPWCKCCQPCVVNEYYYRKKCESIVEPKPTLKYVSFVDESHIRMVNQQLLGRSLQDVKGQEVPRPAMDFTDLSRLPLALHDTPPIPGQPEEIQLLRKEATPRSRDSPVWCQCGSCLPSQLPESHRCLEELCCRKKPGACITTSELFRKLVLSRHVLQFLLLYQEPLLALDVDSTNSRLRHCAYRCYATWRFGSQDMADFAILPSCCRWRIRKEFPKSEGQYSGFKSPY
Protocol: The cells are then pretreated for 30 minutes with the compound of interest at the appropriate concentration in RPMI media containing 100 IU/mL penicillin, 100 ug/mL streptomycin. […] 30 uL of cell supernatant is then collected and IL-1β levels determined via ELISA (R&D systems Cat. # HSLB50) according to manufacturer's recommendations using the Tecan Safire plate reader. Background adjusted IL-1β levels of drug treated and non-treated cells are used to calculate the percent inhibition.
The compounds set forth in Table 1 were tested for activity in a cellular model as described herein.

IC50 [µM] | SMILES
0.572 | C[C@H](C(=O)Nc1cccc2c(=O)n([C@H](C)C(=O)O)ccc12)c1ccc(Cl)cc1 [Compound 322, (R)-2-{5-[(S)-2-(4-Chloro-phenyl)-propionylamino]-1-oxo-1H-isoquinolin-2-yl}-propionic acid]
0.00101 | C[C@H](CO)n1ccc2c(NC(=O)Cc3ccc(Cl)c(Cl)c3)cccc2c1=O [Compound 333, 2-(3,4-Dichloro-phenyl)-N-[2-((R)-2-hydroxy-1-methyl-ethyl)-1-oxo-1,2-dihydro-isoquinolin-5-yl]-acetamide]
0.0143 | C[C@H](CO)n1ccc2c(NC(=O)Cc3ccc(C(F)(F)F)cc3C(F)(F)F)cccc2c1=O [Compound 361]
0.332 | C[C@H](C(N)=O)n1ccc2c(NC(=O)Cc3ccc(C#N)cc3)cccc2c1=O [Compound 287]
0.0533 | CNC(=O)[C@@H](C(C)C)n1ccc2c(NC(=O)[C@@H](C)c3ccc(Cl)cc3)cccc2c1=O [Compound 276, (R)-2-{5-[(S)-2-(4-Chloro-phenyl)-propionylamino]-1-oxo-1H-isoquinolin-2-yl}-3,N-dimethyl-butyramide]
0.391 | O=C(Cc1ccc(C(F)(F)F)cc1C(F)(F)F)Nc1cccc2c(=O)n(C(CO)CO)ccc12 [Compound 233]
0.0358 | O=C(Cc1ccc(Cl)c(C(F)(F)F)c1)Nc1cccc2c(=O)n(C[C@H]3CCCN3)ccc12 [Compound 243]
0.133 | C[C@@H](CO)n1ccc2c(NC(=O)Cc3ccc(C(F)(F)F)cc3)cccc2c1=O [Compound 318]
0.0937 | C[C@@H](C(=O)Nc1cccc2c(=O)n([C@@H](C)CO)ccc12)c1ccc(Cl)c(Cl)c1 [Compound 317]
0.134 | CC(C)(CO)n1ccc2c(NC(=O)Cc3ccc(C(F)(F)F)cc3F)cccc2c1=O [Compound 370]
0.157 | CC(C)(CO)n1ccc2c(NC(=O)Cc3ccc(Cl)c(Cl)c3)cccc2c1=O [Compound 371]
0.00319 | CC(C(=O)Nc1cccc2c(=O)n([C@H](C)C(N)=O)ccc12)c1ccc(Cl)c(C(F)(F)F)c1 (stereo partly drawn) [Compound 267, (R)-2-{5-[2-(4-Chloro-3-trifluoromethyl-phenyl)-propionylamino]-1-oxo-1H-isoquinolin-2-yl}-propionamide]
0.0105 | C[C@H](CO)n1ccc2c(NC(=O)Cc3ccc(F)c(C(F)(F)F)c3)cccc2c1=O [Compound 339]
0.0136 | C[C@@H](C(N)=O)n1ccc2c(NC(=O)Cc3ccc(Cl)cc3F)cccc2c1=O [Compound 350]
> 1 | COc1cccc(CC(=O)Nc2cccc3c(=O)n(CCO)ccc23)c1 [Compound 75]
0.121 | CC(C)C[C@H](CO)n1ccc2c(NC(=O)Cc3ccc(Cl)c(C(F)(F)F)c3)cccc2c1=O [Compound 280]
0.317 | O=C(Cc1ccc(Cl)cc1)Nc1cccc2c(=O)n(CCO)ccc12 [Compound 4]
0.015 | CC(C)(CO)n1ccc2c(NC(=O)Cc3ccc(Cl)c(C(F)(F)F)c3)cccc2c1=O [Compound 369, 2-(4-Chloro-3-trifluoromethyl-phenyl)-N-[2-(2-hydroxy-1,1-dimethyl-ethyl)-1-oxo-1,2-dihydro-isoquinolin-5-yl]-acetamide]
0.0322 | Cc1ccc(CC(=O)Nc2cccc3c(=O)n([C@H](C)C(N)=O)ccc23)cc1F [Compound 302]
0.0222 | O=C(CCc1cc(C(F)(F)F)ccc1C(F)(F)F)Nc1cccc2c(=O)n(CCO)ccc12 [Compound 62]
0.406 | O=C(Cc1cc(C(F)(F)F)ccc1C(F)(F)F)Nc1cccc2c(=O)n(CCO)ccc12 [Compound 70]
0.00954 | C[C@H](CO)n1ccc2c(NC(=O)[C@H](C)c3ccc(Cl)c(Cl)c3)cccc2c1=O [Compound 320]
0.0134 | C[C@H](C(=O)Nc1cccc2c(=O)n([C@H](C)CO)ccc12)c1ccc(Cl)c(Cl)c1 [Compound 321]
0.0179 | C[C@H](C(N)=O)n1ccc2c(NC(=O)Cc3ccc(C(F)(F)F)cc3F)cccc2c1=O [Compound 296]
0.289 | O=C(Cc1ccc(C(F)(F)F)cc1)Nc1cccc2c(=O)n(CCO)ccc12 [Compound 7]
0.0198 | CC(C)C[C@H](CO)n1ccc2c(NC(=O)Cc3ccc(Cl)c(Cl)c3)cccc2c1=O [Compound 275]
0.113 | CC(C(=O)Nc1cccc2c(=O)n(C[C@@H]3CCCN3)ccc12)c1ccc(Cl)cc1 (stereo partly shown) [Compound 246]

IC50 [µM] | SMILES
0.0431 | C[C@H](CO)n1ccc2c(NC(=O)Cc3ccc(C(F)(F)F)cc3F)cccc2c1=O [Compound 359]
0.0166 | C[C@H](C(N)=O)n1ccc2c(NC(=O)Cc3cccc(C(F)(F)F)c3)cccc2c1=O [Compound 297]
0.0151 | NC(=O)[C@H](CO)n1ccc2c(NC(=O)Cc3ccc(Cl)c(C(F)(F)F)c3)cccc2c1=O [Compound 250, (S)-2-{5-[2-(4-Chloro-3-trifluoromethyl-phenyl)-acetylamino]-1-oxo-1H-isoquinolin-2-yl}-3-hydroxy-propionamide]
0.00584 | C[C@H](C(N)=O)n1ccc2c(NC(=O)Cc3ccc(F)c(C(F)(F)F)c3)cccc2c1=O [Compound 304]
0.0498 | C[C@@H](CO)n1ccc2c(NC(=O)Cc3ccc(C(F)(F)F)c(F)c3)cccc2c1=O [Compound 336]
0.0465 | O=C(Cc1ccc(Cl)c(Cl)c1)Nc1cccc2c(=O)n(C[C@H]3CCCN3)ccc12 [Compound 245]
0.0248 | CC(C(=O)Nc1cccc2c(=O)n([C@H](C)C(N)=O)ccc12)c1ccc(F)cc1 (stereo partly shown) [Compound 299]
0.0374 | CNC(=O)[C@@H](CO)n1ccc2c(NC(=O)C(C)c3ccc(Cl)c(Cl)c3)cccc2c1=O (stereo partly drawn) [Compound 270, (R)-2-{5-[2-(3,4-Dichloro-phenyl)-propionylamino]-1-oxo-1H-isoquinolin-2-yl}-3-hydroxy-N-methyl-propionamide]
0.272 | O=C(CCc1ccccc1)Nc1cccc2c(=O)n(CCO)ccc12 [Compound 3]
0.202 | C[C@@H](CO)n1ccc2c(NC(=O)Cc3ccc(Cl)cc3F)cccc2c1=O [Compound 328]
> 1 | COc1ccc(C(=O)Nc2cccc3c(=O)n(C(CO)CO)ccc23)c(OC)c1 [Compound 5]
0.0387 | C[C@@H](C(=O)Nc1cccc2c(=O)n([C@@H](C)C(N)=O)ccc12)c1ccc(Cl)cc1 [Compound 266]
0.206 | C[C@H](CO)n1ccc2c(NC(=O)Cc3ccc(F)c(Cl)c3)cccc2c1=O [Compound 329]
0.0606 | CC(C)C[C@H](CO)n1ccc2c(NC(=O)[C@@H](C)c3ccc(Cl)cc3)cccc2c1=O [Compound 271]
0.00931 | C[C@H](CO)n1ccc2c(NC(=O)Cc3ccc(C(F)(F)F)c(F)c3)cccc2c1=O [Compound 335]
> 1 | C[C@H](C(N)=O)n1ccc2c(NC(=O)Cc3ccc(Cl)nc3)cccc2c1=O [Compound 312]
0.0669 | C[C@@H](C(N)=O)n1ccc2c(NC(=O)Cc3ccc(F)c(Cl)c3)cccc2c1=O [Compound 346]
0.0275 | O=C(Cc1ccc(Cl)c(Cl)c1)Nc1cccc2c(=O)n(C(CO)CO)ccc12 [Compound 80]
> 1 | O=C(Nc1cccc2c(=O)n(CCO)ccc12)c1ccccc1 [Compound 1]
0.0338 | CC(C)[C@H](C(=O)NC1CC1)n1ccc2c(NC(=O)[C@H](C)c3ccc(Cl)cc3)cccc2c1=O [Compound 282]
0.00691 | CC(C)[C@H](C(N)=O)n1ccc2c(NC(=O)[C@H](C)c3ccc(Cl)cc3)cccc2c1=O [Compound 284, (R)-2-{5-[(R)-2-(4-Chloro-phenyl)-propionylamino]-1-oxo-1H-isoquinolin-2-yl}-3-methyl-butyramide]
0.0842 | O=C(Cc1ccc(Cl)c(F)c1)Nc1cccc2c(=O)n(CCO)ccc12 [Compound 354]
0.00483 | NC(=O)Cn1ccc2c(NC(=O)Cc3ccc(Cl)c(C(F)(F)F)c3)cccc2c1=O [Compound 249, 2-{5-[2-(4-Chloro-3-trifluoromethyl-phenyl)-acetylamino]-1-oxo-1H-isoquinolin-2-yl}-acetamide]
0.0133 | C[C@H](CO)n1ccc2c(NC(=O)Cc3ccc(Cl)c(F)c3)cccc2c1=O [Compound 330, 2-(4-Chloro-3-fluorophenyl)-N-[2-((R)-2-hydroxy-1-methyl-ethyl)-1-oxo-1,2-dihydro-isoquinolin-5-yl]-acetamide]
0.00763 | C[C@H](C(N)=O)n1ccc2c(NC(=O)Cc3ccc(Cl)cc3F)cccc2c1=O [Compound 290]
> 1 | CS(=O)(=O)c1ccc(CCC(=O)Nc2cccc3c(=O)n(CCO)ccc23)cc1 [Compound 71]
> 1 | CCC(C(=O)Nc1cccc2c(=O)n(CCO)ccc12)c1ccccc1 (stereo not shown) [Compound 74]

SMILES | IC50 [µM]
O=C(Cc1ccc(F)c(C(F)(F)F)c1)Nc1c(Cl)ccc2c(=O)n(CCO)ccc12 [Compound 386, N-[6-Chloro-2-(2-hydroxy-ethyl)-1-oxo-1,2-dihydro-isoquinolin-5-yl]-2-(4-fluoro-3-trifluoromethyl-phenyl)-acetamide] | 0.00545
